Key:
[1] = in vitro; conditions: blood
[2] = Demeule et al., 2008; cited from earlier work

Row | Compound | half-life [1] | Kin (cerebral transfer coefficient) [2]
1 | CSCC[C@@H]1NC(=O)[C@H](N)CSSC[C@@H](C(=O)O)NC(=O)CNC(=O)[C@H](CCCNC(=N)N)NC(=O)[C@H](CC(C)C)NC(=O)[C@H](CCCNC(=N)N)NC(=O)[C@@H]2CCCN2C1=O [SEQ ID NO: 17] | 3 h | 
2 | transferrin [Tf] |  | 0.0003 mL/s/g
